{"source": "the NIST ThermoML archive (doi:10.1016/j.jct.2015.07.006)", "assay": "mn = molality of the nth substance listed, in mol/kg", "settings": "298.15 K, 100 kPa, Liquid, Vibrating tube method", "note": "“And” between values parts separate entries of the source, which are not always exact repeats. Identical values can stand only once. Numbers after ± are expanded uncertainties.", "data": [{"smiles": "[O]=[Tc](=[O])(=[O])[OH]", "note": "[pertechnetic acid] + O", "values": [{"measurement": "mass density", "setting": "m1 = 0.000983", "result": "996.83 ± 2", "unit": "kg/m3"}, {"measurement": "mass density", "setting": "m1 = 0.00102", "result": "996.91 ± 2", "unit": "kg/m3"}, {"measurement": "mass density", "setting": "m1 = 0.00113", "result": "996.91 ± 2 kg/m3 and 996.92 ± 2 kg/m3"}, {"measurement": "mass density", "setting": "m1 = 0.00124", "result": "996.91 ± 2", "unit": "kg/m3"}, {"measurement": "mass density", "setting": "m1 = 0.00159", "result": "996.95 ± 2", "unit": "kg/m3"}, {"measurement": "mass density", "setting": "m1 = 0.1", "result": "1008.7 ± 2", "unit": "kg/m3"}, {"measurement": "mass density", "setting": "m1 = 0.103", "result": "1008.77 ± 2", "unit": "kg/m3"}, {"measurement": "mass density", "setting": "m1 = 0.114", "result": "1009.95 ± 2", "unit": "kg/m3"}, {"measurement": "mass density", "setting": "m1 = 0.115", "result": "1010.3 ± 2", "unit": "kg/m3"}, {"measurement": "mass density", "setting": "m1 = 0.127", "result": "1011.76 ± 2", "unit": "kg/m3"}, {"measurement": "mass density", "setting": "m1 = 0.163", "result": "1016.23 ± 2", "unit": "kg/m3"}, {"measurement": "mass density", "setting": "m1 = 0.888", "result": "1097.53 ± 2.2", "unit": "kg/m3"}, {"measurement": "mass density", "setting": "m1 = 0.98", "result": "1107.47 ± 2.2", "unit": "kg/m3"}, {"measurement": "mass density", "setting": "m1 = 1.007", "result": "1117.47 ± 2.3", "unit": "kg/m3"}, {"measurement": "mass density", "setting": "m1 = 1.096", "result": "1127.7 ± 2.3", "unit": "kg/m3"}, {"measurement": "mass density", "setting": "m1 = 1.182", "result": "1137.34 ± 2.3", "unit": "kg/m3"}, {"measurement": "mass density", "setting": "m1 = 1.265", "result": "1146.5 ± 2.3", "unit": "kg/m3"}, {"measurement": "mass density", "setting": "m1 = 1.347", "result": "1155.88 ± 2.3", "unit": "kg/m3"}, {"measurement": "mass density", "setting": "m1 = 1.398", "result": "1164.11 ± 2.4", "unit": "kg/m3"}, {"measurement": "mass density", "setting": "m1 = 1.535", "result": "1178.55 ± 2.4", "unit": "kg/m3"}, {"measurement": "mass density", "setting": "m1 = 1.696", "result": "1195.28 ± 2.4", "unit": "kg/m3"}, {"measurement": "mass density", "setting": "m1 = 2.034", "result": "1225.06 ± 2.5", "unit": "kg/m3"}, {"measurement": "mass density", "setting": "m1 = 2.106", "result": "1235.3 ± 2.5", "unit": "kg/m3"}, {"measurement": "mass density", "setting": "m1 = 2.211", "result": "1243.09 ± 2.5", "unit": "kg/m3"}, {"measurement": "mass density", "setting": "m1 = 2.45", "result": "1263.95 ± 2.6", "unit": "kg/m3"}, {"measurement": "mass density", "setting": "m1 = 2.555", "result": "1272.74 ± 2.6", "unit": "kg/m3"}, {"measurement": "mass density", "setting": "m1 = 2.667", "result": "1283.23 ± 2.6", "unit": "kg/m3"}, {"measurement": "mass density", "setting": "m1 = 2.783", "result": "1293.03 ± 2.6", "unit": "kg/m3"}, {"measurement": "mass density", "setting": "m1 = 2.908", "result": "1303.34 ± 2.7", "unit": "kg/m3"}, {"measurement": "mass density", "setting": "m1 = 3.042", "result": "1314.68 ± 2.7", "unit": "kg/m3"}, {"measurement": "mass density", "setting": "m1 = 3.33", "result": "1335.81 ± 2.7", "unit": "kg/m3"}, {"measurement": "mass density", "setting": "m1 = 3.49", "result": "1348.06 ± 2.8", "unit": "kg/m3"}, {"measurement": "mass density", "setting": "m1 = 3.693", "result": "1374.94 ± 2.8", "unit": "kg/m3"}, {"measurement": "mass density", "setting": "m1 = 3.884", "result": "1389.83 ± 2.9", "unit": "kg/m3"}, {"measurement": "mass density", "setting": "m1 = 4.038", "result": "1399.11 ± 2.9", "unit": "kg/m3"}, {"measurement": "mass density", "setting": "m1 = 4.46", "result": "1434.87 ± 2.9", "unit": "kg/m3"}, {"measurement": "mass density", "setting": "m1 = 4.661", "result": "1446.75 ± 3", "unit": "kg/m3"}, {"measurement": "mass density", "setting": "m1 = 4.851", "result": "1460.83 ± 3", "unit": "kg/m3"}, {"measurement": "mass density", "setting": "m1 = 5.049", "result": "1475.34 ± 3", "unit": "kg/m3"}, {"measurement": "mass density", "setting": "m1 = 5.257", "result": "1490.81 ± 3.1", "unit": "kg/m3"}, {"measurement": "mass density", "setting": "m1 = 5.485", "result": "1507.23 ± 3.1", "unit": "kg/m3"}, {"measurement": "mass density", "setting": "m1 = 5.722", "result": "1523.34 ± 3.1", "unit": "kg/m3"}, {"measurement": "mass density", "setting": "m1 = 6.254", "result": "1556.61 ± 3.2", "unit": "kg/m3"}, {"measurement": "mass density", "setting": "m1 = 6.537", "result": "1574.08 ± 3.3", "unit": "kg/m3"}, {"measurement": "mass density", "setting": "m1 = 6.849", "result": "1593.38 ± 3.3", "unit": "kg/m3"}, {"measurement": "mass density", "setting": "m1 = 7.187", "result": "1612.75 ± 3.3", "unit": "kg/m3"}, {"measurement": "mass density", "setting": "m1 = 7.54", "result": "1634.13 ± 3.4", "unit": "kg/m3"}, {"measurement": "mass density", "setting": "m1 = 7.918", "result": "1657.06 ± 3.4", "unit": "kg/m3"}, {"measurement": "mass density", "setting": "m1 = 8.323", "result": "1679.31 ± 3.5", "unit": "kg/m3"}]}]}
